This test has as its target T1, BRD4 (Homo sapiens, UniProt O60885).
T1 construct: HEK293 containing a HiBit insertion for BRD4; endogenous in cells; host or cells: HEK293 with a HiBiT insertion for BRD4
The test can be described thus: Assay 1 - Degradation of HiBit-BRD4 in HEK293. It is filed as cell-based. The settings on record: HiBit-BRD4 in HEK293, 6 h treatment. How it is done: 1.1 Assay 1-Degradation of HiBit-BRD4 in HEK293
HEK293 containing a HiBit insertion for BRD4 were plated in 384-well tissue culture plates at a density of 8×10^4 per well in a volume of 36 μL and incubated overnight at 37° C. and 5% CO2. Wells were treated with test compounds for 6 h prior to addition of the NanoLuc substrate and reading on a […]. Degradation data was plotted and analysed using […] (Graphpad).

Consider 31 compounds from patent US20260232812A1, “BIFUNCTIONAL MOLECULES FOR TARGETED PROTEIN DEGRADATION” (Amphista Therapeutics Limited, priority 2022, published 2026).

One may read the DC50 as the midpoint of the concentration-degradation curve. Read a low DC50 as a more potent degrader. Broadly, the Dmax is the greatest extent of degradation seen. In the case of `CC(=O)N1c2ccc(-c3ccc(C(=O)NCCOCCOCCOCCOCCOCCNC(=O)[C@@H]4CN(C(=O)/C(C#N)=C/C(C)(C)C)C[C@H]4c4cccc(C)c4)cc3)cc2[C@H](Nc2ccc(Cl)cc2)C[C@@H]1C` [Example 15ak, N-(1-(4-((2S,4R)-1-acetyl-4-((4-chlorophenyl)amino)-2-methyl-1,2,3,4-tetrahydroquinolin-6-yl)phenyl)-1-oxo-5,8,11,14,17-pentaoxa-2-azanonadecan-19-yl)-1-((E)-2-cyano-4,4-dimethylpent-2-enoyl)-4-(m-tolyl)pyrrolidine-3-carboxamide], the half-maximal degradation concentration (DC50) lay within 25 to 200 nM and the Dmax is at least 70%.
In turn, `CC(=O)N1c2ccc(-c3ccc(C(=O)NCCOCCOCCOCCOCCOCCNC(=O)C4CCCN(C(=O)/C(C#N)=C/C(C)(C)C)C4)cc3)cc2[C@H](Nc2ccc(Cl)cc2)C[C@@H]1C` (some centres unmarked) [Example 13b] came in with a DC50 of 25 to 200 nM and a Dmax of at least 70%.
For `CC(=O)N1c2ccc(-c3ccc(C(=O)NCCOCCOCCOCCOCCOCCNC(=O)[C@@H]4CN(C(=O)/C(C#N)=C/c5ccn(C)n5)C[C@H]4C(C)C)cc3)cc2[C@H](Nc2ccc(Cl)cc2)C[C@@H]1C` [Example 15h], the DC50 lay in the range of 25 to 200 nM and the Dmax fell in the range of 50 to 70%.
For `CC(=O)N1c2ccc(-c3ccc(C(=O)NCCOCCOCCOCCOCCOCCNC(=O)C4CC(C(C)C)CN(C(=O)/C(C#N)=C/c5ccn(C)n5)C4)cc3)cc2[C@H](Nc2ccc(Cl)cc2)C[C@@H]1C` (some centres unmarked) [Example 13m] the same measures were 25 to 200 nM and 50 to 70%.
The like results for `CC(=O)N1c2ccc(-c3ccc(C(=O)NCCOCCOCCOCCOCCOCCNC(=O)[C@@H]4CN(C(=O)/C(C#N)=C/C(C)(C)CN5CCOCC5)C[C@H]4c4cccc(C)c4)cc3)cc2[C@H](Nc2ccc(Cl)cc2)C[C@@H]1C` [Example 15an] were, in that order, 25 to 200 nM and 30 to 50%.
For `CC(=O)N1c2ccc(-c3ccc(C(=O)NCCOCCOCCOCCOCCOCCNC(=O)C4CC(C5CC5)CN(C(=O)/C(C#N)=C/c5ccc(F)cc5)C4)cc3)cc2[C@H](Nc2ccc(Cl)cc2)C[C@@H]1C` (some centres unmarked) [Example 13x] the same measures were 25 to 200 nM and at least 70%.
For `CC(=O)N1c2ccc(-c3ccc(C(=O)NCCOCCOCCOCCOCCOCCNC(=O)[C@@H]4CN(C(=O)/C(C#N)=C/c5nccs5)C[C@H]4CC(C)C)cc3)cc2[C@H](Nc2ccc(Cl)cc2)C[C@@H]1C` [Example 15k], the DC50 was 25 to 200 nM and the Dmax is at least 70%.
In turn, `CC(=O)N1c2ccc(-c3ccc(C(=O)NCCOCCOCCOCCOCCOCCNC(=O)[C@@H]4CN(C(=O)/C(C#N)=C/C(C)(C)CN5CCOCC5)C[C@H]4c4ccc(F)cc4)cc3)cc2[C@H](Nc2ccc(Cl)cc2)C[C@@H]1C` [Example 15ai] registered a DC50 of 25 to 200 nM and a Dmax of 30 to 50%.
For `CC(=O)N1c2ccc(-c3ccc(C(=O)NCCOCCOCCOCCOCCOCCNC(=O)[C@@H]4CN(C(=O)/C(C#N)=C/c5nccs5)C[C@H]4c4cccc(C)c4)cc3)cc2[C@H](Nc2ccc(Cl)cc2)C[C@@H]1C` [Example 15aj] the same measures were 25 to 200 nM and 50 to 70%.
Take `COc1ccc([C@@H]2CN(C(=O)/C(C#N)=C/c3ccn(C)n3)C[C@H]2C(=O)NCCOCCOCCOCCOCCOCCNC(=O)c2ccc(-c3ccc4c(c3)[C@H](Nc3ccc(Cl)cc3)C[C@H](C)N4C(C)=O)cc2)cc1` [Example 15ab]: the DC50 was 25 to 200 nM and the Dmax was 50 to 70%.
For `CC(=O)N1c2ccc(-c3ccc(C(=O)NCCOCCOCCOCCOCCOCCNC(=O)C4CC(C5CCCCC5)CN(C(=O)/C(C#N)=C/c5ccn(C)n5)C4)cc3)cc2[C@H](Nc2ccc(Cl)cc2)C[C@@H]1C` (some centres unmarked) [Example 13r] the same measures were 25 to 200 nM and at least 70%.
The like results for `CC(=O)N1c2ccc(-c3ccc(C(=O)NCCOCCOCCOCCOCCOCCNC(=O)[C@@H]4CN(C(=O)/C(C#N)=C/c5ccn(C)n5)C[C@H]4c4ccc(F)cc4)cc3)cc2[C@H](Nc2ccc(Cl)cc2)C[C@@H]1C` [Example 15ag] were, in that order, 25 to 200 nM and 30 to 50%.
Compound `CC(=O)N1c2ccc(-c3ccc(C(=O)NCCOCCOCCOCCOCCOCCNC(=O)C4CC(C5CC5)CN(C(=O)/C(C#N)=C/C(C)(C)C)C4)cc3)cc2[C@H](Nc2ccc(Cl)cc2)C[C@@H]1C` (some centres unmarked) [Example 13v] had a DC50 of 25 to 200 nM and a Dmax of at least 70%.
The like results for `CC(=O)N1c2ccc(-c3ccc(C(=O)NCCOCCOCCOCCOCCOCCNC(=O)[C@@H]4CN(C(=O)/C(C#N)=C/C(C)(C)CN5CCOCC5)C[C@H]4CC(C)C)cc3)cc2[C@H](Nc2ccc(Cl)cc2)C[C@@H]1C` [Example 15o] were, in that order, 25 to 200 nM and 50 to 70%.
For `CC(=O)N1c2ccc(-c3ccc(C(=O)NCCOCCOCCOCCOCCOCCNC(=O)C4CC(C5CCCCC5)CN(C(=O)/C(C#N)=C/c5ccc(F)cc5)C4)cc3)cc2[C@H](Nc2ccc(Cl)cc2)C[C@@H]1C` (some centres unmarked) [Example 13s] the same measures were 25 to 200 nM and at least 70%.
Compound `CC(=O)N1c2ccc(-c3ccc(C(=O)NCCOCCOCCOCCOCCOCCNC(=O)[C@@H]4CN(C(=O)/C(C#N)=C/c5nccs5)C[C@H]4c4ccc(F)cc4)cc3)cc2[C@H](Nc2ccc(Cl)cc2)C[C@@H]1C` [Example 15ae] had a 50% degradation concentration (DC50) of 25 to 200 nM and a Dmax of at least 70%.
The like results for `CC(=O)N1c2ccc(-c3ccc(C(=O)NCCOCCOCCOCCOCCOCCNC(=O)C4CC(c5cccc(C)c5)CN(C(=O)/C(C#N)=C/c5nccs5)C4)cc3)cc2[C@H](Nc2ccc(Cl)cc2)C[C@@H]1C` (some centres unmarked) [Example 13at] were, in that order, 25 to 200 nM and at least 70%.
For `CC(=O)N1c2ccc(-c3ccc(C(=O)NCCOCCOCCOCCOCCOCCNC(=O)C4CC(c5ccccc5)CN(C(=O)/C(C#N)=C/c5nccs5)C4)cc3)cc2[C@H](Nc2ccc(Cl)cc2)C[C@@H]1C` (some centres unmarked) [Example 13z] the same measures were below 25 nM and at least 70%.
For `CC(=O)N1c2ccc(-c3ccc(C(=O)NCCOCCOCCOCCOCCOCCNC(=O)C4CC(c5ccc(C(F)(F)F)cc5)CN(C(=O)/C(C#N)=C/C(C)(C)C)C4)cc3)cc2[C@H](Nc2ccc(Cl)cc2)C[C@@H]1C` (some centres unmarked) [Example 13ak] the same measures were 25 to 200 nM and at least 70%.
`CC(=O)N1c2ccc(-c3ccc(C(=O)NCCOCCOCCOCCOCCOCCNC(=O)C4CC(C(C)C)CN(C(=O)/C(C#N)=C/C(C)(C)C)C4)cc3)cc2[C@H](Nc2ccc(Cl)cc2)C[C@@H]1C` (some centres unmarked) [Example 13l] had a DC50 above 200 nM and a Dmax of 30 to 50%.
The like results for `COc1ccc(C2CC(C(=O)NCCOCCOCCOCCOCCOCCNC(=O)c3ccc(-c4ccc5c(c4)[C@H](Nc4ccc(Cl)cc4)C[C@H](C)N5C(C)=O)cc3)CN(C(=O)/C(C#N)=C/c3ccn(C)n3)C2)cc1` (some centres unmarked) [Example 13ag] were, in that order, 25 to 200 nM and 50 to 70%.
Compound `CC(=O)N1c2ccc(-c3ccc(C(=O)NCCOCCOCCOCCOCCOCCNC(=O)[C@@H]4CN(C(=O)/C(C#N)=C/c5ccn(C)n5)C[C@H]4CC(C)C)cc3)cc2[C@H](Nc2ccc(Cl)cc2)C[C@@H]1C` [Example 15m] gave a DC50 of 25 to 200 nM and a Dmax of 50 to 70%.
The like results for `CC(=O)N1c2ccc(-c3ccc(C(=O)NCCOCCOCCOCCOCCOCCNC(=O)C4CC(c5cccc(C)c5)CN(C(=O)/C(C#N)=C/C(C)(C)C)C4)cc3)cc2[C@H](Nc2ccc(Cl)cc2)C[C@@H]1C` (some centres unmarked) [Example 13au] were, in that order, 25 to 200 nM and at least 70%.
On to `CC(=O)N1c2ccc(-c3ccc(C(=O)NCCOCCOCCOCCOCCOCCNC(=O)[C@@H]4CN(C(=O)/C(C#N)=C/c5ccn(C)n5)C[C@H]4c4ccccc4)cc3)cc2[C@H](Nc2ccc(Cl)cc2)C[C@@H]1C` [Example 15w], for which the DC50 lay in the range of 25 to 200 nM and the Dmax was in the range of 30 to 50%.
The like results for `CC(=O)N1c2ccc(-c3ccc(C(=O)NCCOCCOCCOCCOCCOCCNC(=O)C4CC(C)CN(C(=O)/C(C#N)=C/C(C)(C)C)C4)cc3)cc2[C@H](Nc2ccc(Cl)cc2)C[C@@H]1C` (some centres unmarked) [Example 13g] were, in that order, above 200 nM and 50 to 70%.
Consider `CC(=O)N1c2ccc(-c3ccc(C(=O)NCCOCCOCCOCCOCCOCCNC(=O)[C@@H]4CN(C(=O)/C(C#N)=C/c5ccn(C)n5)C[C@H]4c4cccc(C)c4)cc3)cc2[C@H](Nc2ccc(Cl)cc2)C[C@@H]1C` [Example 15al], for which the DC50 is above 200 nM and the Dmax is at least 70%.
For `CC(=O)N1c2ccc(-c3ccc(C(=O)NCCOCCOCCOCCOCCOCCNC(=O)CN4CCC(C5CCCN5C(=O)/C(C#N)=C/c5cscn5)CC4)cc3)cc2[C@H](Nc2ccc(Cl)cc2)C[C@@H]1C` (some centres unmarked) [Example 14a], the DC50 is 25 to 200 nM and the maximal degradation (Dmax) was at least 70%.
Regarding `CC(=O)N1c2ccc(-c3ccc(C(=O)NCCOCCOCCOCCOCCOCCNC(=O)C4CC(c5ccccc5)CN(C(=O)/C(C#N)=C/c5ccn(C)n5)C4)cc3)cc2[C@H](Nc2ccc(Cl)cc2)C[C@@H]1C` (some centres unmarked) [Example 13ab], the DC50 was above 200 nM and the Dmax lay in the range of 50 to 70%.
`CC(=O)N1c2ccc(-c3ccc(C(=O)NCCOCCOCCOCCOCCOCCNC(=O)[C@@H]4CN(C(=O)/C(C#N)=C/C(C)(C)C)C[C@H]4CC(C)C)cc3)cc2[C@H](Nc2ccc(Cl)cc2)C[C@@H]1C` [Example 15l] displayed a DC50 of 25 to 200 nM and a Dmax of at least 70%.
Compound `COc1ccc([C@@H]2CN(C(=O)/C(C#N)=C/c3nccs3)C[C@H]2C(=O)NCCOCCOCCOCCOCCOCCNC(=O)c2ccc(-c3ccc4c(c3)[C@H](Nc3ccc(Cl)cc3)C[C@H](C)N4C(C)=O)cc2)cc1` [Example 15z] came in with a DC50 of 25 to 200 nM and a Dmax of 30 to 50%.
Compound `CC(=O)N1c2ccc(-c3ccc(C(=O)NCCOCCOCCOCCOCCOCCNC(=O)C4CC(C5CCCCC5)CN(C(=O)/C(C#N)=C/C(C)(C)CN5CCOCC5)C4)cc3)cc2[C@H](Nc2ccc(Cl)cc2)C[C@@H]1C` (some centres unmarked) [Example 13t] gave a DC50 of 25 to 200 nM and a Dmax of at least 70%.
